Test results taken from patent publication US20260232767A1, “INTERLEUKIN-23 RECEPTOR ANTAGONIST PEPTIDES FOR USE IN THE TREATMENT OF PSORIASIS” (Janssen Pharmaceutica NV, priority 2023, published 2026).
Where two headings read alike, the source gives them in different places.

Test: Plasma concentrations (PK), Example 1
Type: in vivo, human
Conditions: human, plasma, oral; for level at 1344 h: Week 8; for level at 168 h: Week 1, Trough; for level at 672 h: Week 4
Protocol: For QD dosing, peak concentration was defined as any PK sample taken between 0.25 to <6 hours after the last morning dose and trough concentration was at least 20 hours after the last morning dose. For BID dosing, peak concentration was defined as any PK sample taken between 0.25 to <4 hours after the last dose and trough concentration was at least 8 hours after the last dose.

[1] = 50 mg, 50 mg QD, Peak, read-out: Plasma concentration, Geometric Mean
[2] = 50 mg, 50 mg QD, Peak, read-out: Plasma concentration, Mean
[3] = 50 mg, 50 mg QD, Peak, read-out: Plasma concentration, Median

## CC(=O)NCCCC[C@@H]1NC(=O)[C@H](Cc2c[nH]c3c(C)cccc23)NC(=O)[C@H]([C@@H](C)O)NC(=O)[C@H](CC(N)=O)NC(=O)[C@@H](NC(C)=O)C(C)(C)SSC(C)(C)[C@@H](C(=O)N[C@@H](Cc2ccc(OCCN)cc2)C(=O)N[C@@H](Cc2ccc3ccccc3c2)C(=O)NC2(C(=O)N[C@@H](CCC(=O)O)C(=O)N[C@@H](CC(N)=O)C(=O)N[C@@H](Cc3cccnc3)C(=O)N(C)CC(N)=O)CCOCC2)NC1=O [IL-23 receptor antagonist peptide, Ac-[Pen]*-N-T-[W(7-Me)]-[Lys(Ac)]-[Pen]*-Phe[4-(2-aminoethoxy)]-[2-Nal]-[THP]-E-N-[3-Pal]-Sarc-NH2 (*[Pen]-[Pen]* formdisulfidebond)]
25 mg, 25 mg QD, Trough, read-out: Plasma concentration, Median
  level at 1344 h: 0.06 ng/mL
25 mg, 25 mg QD, Week 12, Trough, read-out: Plasma concentration, Mean
  level at 2016 h: 0.052 ng/mL
25 mg, weight >90 kg, 25 mg BID, Week 12, Intermediate, read-out: Plasma concentration, Geometric Mean
  level at 2016 h: 0.214 ng/mL
25 mg, weight >90 kg, 25 mg BID, Week 12, Peak, read-out: Plasma concentration, Geometric Mean
  level at 2016 h: 0.32 ng/mL
25 mg, weight >90 kg, 25 mg BID, Week 12, Peak, read-out: Plasma concentration, Mean
  level at 2016 h: 0.391 ng/mL
25 mg, weight >90 kg, 25 mg BID, Week 12, Peak, read-out: Plasma concentration, Median
  level at 2016 h: 0.365 ng/mL
25 mg, weight >90 kg, 25 mg BID, Week 16, Intermediate, read-out: Plasma concentration, Mean
  level at 2688 h: 0.181 ng/mL
25 mg, weight >90 kg, 25 mg BID, Week 16, Trough, read-out: Plasma concentration, Geometric Mean
  level at 2688 h: 0.144 ng/mL
25 mg, weight >90 kg, 25 mg BID, Week 16, Trough, read-out: Plasma concentration, Mean
  level at 2688 h: 0.152 ng/mL
25 mg, weight >90 kg, 25 mg BID, Week 16, Trough, read-out: Plasma concentration, Median
  level at 2688 h: 0.138 ng/mL
25 mg, weight >90 kg, 25 mg QD, read-out: Plasma concentration, Mean
  level at 168 h: 0.044 ng/mL
25 mg, weight >90 kg, 25 mg QD, Week 12, Peak, read-out: Plasma concentration, Geometric Mean
  level at 2016 h: 0.236 ng/mL
25 mg, weight >90 kg, 25 mg QD, Week 12, Peak, read-out: Plasma concentration, Mean
  level at 2016 h: 0.281 ng/mL
25 mg, weight >90 kg, 25 mg QD, Week 12, Peak, read-out: Plasma concentration, Median
  level at 2016 h: 0.291 ng/mL
25 mg, weight >90 kg, 25 mg QD, Week 16, Intermediate, read-out: Plasma concentration, Mean
  level at 2688 h: 0.165 ng/mL
25 mg, weight >90 kg, 25 mg QD, Week 16, Trough, read-out: Plasma concentration, Geometric Mean
  level at 2688 h: 0.063 ng/mL
25 mg, weight >90 kg, 25 mg QD, Week 16, Trough, read-out: Plasma concentration, Mean
  level at 2688 h: 0.066 ng/mL
25 mg, weight >90 kg, 25 mg QD, Week 16, Trough, read-out: Plasma concentration, Median
  level at 2688 h: 0.047 ng/mL
25 mg, weight ≤90 kg, 25 mg QD, Week 12, Trough, read-out: Plasma concentration, Mean
  level at 2016 h: 0.045 ng/mL
[1]
  level at 672 h: 0.481 ng/mL
  level at 1344 h: 0.853 ng/mL
[2]
  level at 672 h: 0.564 ng/mL
  level at 1344 h: 1.1 ng/mL
[3]
  level at 672 h: 0.539 ng/mL
  level at 1344 h: 0.78 ng/mL
50 mg, 50 mg QD, Intermediate, read-out: Plasma concentration, Geometric Mean
  level at 1344 h: 0.441 ng/mL
50 mg, 50 mg QD, Intermediate, read-out: Plasma concentration, Mean
  level at 1344 h: 0.441 ng/mL
50 mg, 50 mg QD, Intermediate, read-out: Plasma concentration, Median
  level at 1344 h: 0.441 ng/mL
50 mg, 50 mg QD, Trough, read-out: Plasma concentration, Geometric Mean
  level at 1344 h: 0.111 ng/mL
50 mg, 50 mg QD, Trough, read-out: Plasma concentration, Mean
  level at 1344 h: 0.147 ng/mL
50 mg, 50 mg QD, Trough, read-out: Plasma concentration, Median
  level at 1344 h: 0.112 ng/mL
50 mg, 50 mg QD, Week 12, Trough, read-out: Plasma concentration, Mean
  level at 2016 h: 0.085 ng/mL
50 mg, weight >90 kg, 50 mg QD, read-out: Plasma concentration, Mean
  level at 168 h: 0.073 ng/mL
50 mg, weight >90 kg, 50 mg QD, Week 12, Peak, read-out: Plasma concentration, Geometric Mean
  level at 2016 h: 0.551 ng/mL
50 mg, weight >90 kg, 50 mg QD, Week 12, Peak, read-out: Plasma concentration, Mean
  level at 2016 h: 0.786 ng/mL
50 mg, weight >90 kg, 50 mg QD, Week 12, Peak, read-out: Plasma concentration, Median
  level at 2016 h: 0.388 ng/mL
50 mg, weight >90 kg, 50 mg QD, Week 16, Intermediate, read-out: Plasma concentration, Mean
  level at 2688 h: 0.321 ng/mL
50 mg, weight >90 kg, 50 mg QD, Week 16, Trough, read-out: Plasma concentration, Geometric Mean
  level at 2688 h: 0.105 ng/mL
50 mg, weight >90 kg, 50 mg QD, Week 16, Trough, read-out: Plasma concentration, Mean
  level at 2688 h: 0.096 ng/mL
50 mg, weight >90 kg, 50 mg QD, Week 16, Trough, read-out: Plasma concentration, Median
  level at 2688 h: 0.115 ng/mL
50 mg, weight ≤90 kg, 50 mg QD, Week 12, Trough, read-out: Plasma concentration, Mean
  level at 2016 h: 0.083 ng/mL
100 mg, 100 mg BID, Intermediate, read-out: Plasma concentration, Geometric Mean
  level at 672 h: 0.756 ng/mL
100 mg, 100 mg BID, Peak, read-out: Plasma concentration, Geometric Mean
  level at 672 h: 1.7 ng/mL
